Experimental data reported in ChEMBL document CHEMBL1201862, “PubChem BioAssay data set” (2004).
Activity calls are given as the source filed them.

Columns and labels:
[1] = molecular target: T1, Rac GTPase-activating protein 1 (Homo sapiens, UniProt Q9H0H5); assay: MgcRacGAP GTPase-activating activity inhibitors, confirmation, biochemical, ADP Hunter fluorescence, primary and confirmatory (AID 624330); format: functional
T1 sequence (Q9H0H5 whole entry): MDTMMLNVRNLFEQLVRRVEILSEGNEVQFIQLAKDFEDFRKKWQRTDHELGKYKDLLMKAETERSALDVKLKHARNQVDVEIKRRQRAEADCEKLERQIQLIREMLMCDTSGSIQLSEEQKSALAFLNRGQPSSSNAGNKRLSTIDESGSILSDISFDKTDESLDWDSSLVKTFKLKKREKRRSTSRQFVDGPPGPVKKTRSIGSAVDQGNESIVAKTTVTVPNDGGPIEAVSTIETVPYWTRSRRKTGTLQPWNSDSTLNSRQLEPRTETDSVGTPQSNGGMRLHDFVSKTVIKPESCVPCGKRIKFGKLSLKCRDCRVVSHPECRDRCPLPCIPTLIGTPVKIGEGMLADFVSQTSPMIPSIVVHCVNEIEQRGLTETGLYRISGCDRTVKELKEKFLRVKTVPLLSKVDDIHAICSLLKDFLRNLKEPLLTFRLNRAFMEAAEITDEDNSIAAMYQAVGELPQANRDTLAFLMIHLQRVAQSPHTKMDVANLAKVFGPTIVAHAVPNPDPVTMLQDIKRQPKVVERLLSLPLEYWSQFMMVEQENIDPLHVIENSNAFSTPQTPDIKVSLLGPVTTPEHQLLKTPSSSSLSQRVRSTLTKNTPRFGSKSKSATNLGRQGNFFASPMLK

[2] = HeLa cell cytotoxicity, dose response, cytotoxicity control for MgcRacGAP inhibitor project (AID 624300); format: functional
HeLa = assay: HeLa cell cytotoxicity, dose response, cytotoxicity control, ATP luminescence, cherry-pick samples (AID 687004); format: functional, cell-based; conditions: Homo sapiens
Cryptococcus neoformans = assay: Cryptococcus growth inhibition by alamar blue – cell lysis, cherry-picks, replicate tests, mechanism study for C. neoformans antifungal project, dose response (AID 686999); format: functional, organism-based
[3] = molecular target: T2, High affinity choline transporter 1 (Homo sapiens, UniProt Q9GZV3); assay: CHT choline uptake inhibitors, dose response, cell-based, HEK-293 hCHT, [3H]-choline uptake (AID 652177); format: functional
T2 sequence (Q9GZV3 whole entry): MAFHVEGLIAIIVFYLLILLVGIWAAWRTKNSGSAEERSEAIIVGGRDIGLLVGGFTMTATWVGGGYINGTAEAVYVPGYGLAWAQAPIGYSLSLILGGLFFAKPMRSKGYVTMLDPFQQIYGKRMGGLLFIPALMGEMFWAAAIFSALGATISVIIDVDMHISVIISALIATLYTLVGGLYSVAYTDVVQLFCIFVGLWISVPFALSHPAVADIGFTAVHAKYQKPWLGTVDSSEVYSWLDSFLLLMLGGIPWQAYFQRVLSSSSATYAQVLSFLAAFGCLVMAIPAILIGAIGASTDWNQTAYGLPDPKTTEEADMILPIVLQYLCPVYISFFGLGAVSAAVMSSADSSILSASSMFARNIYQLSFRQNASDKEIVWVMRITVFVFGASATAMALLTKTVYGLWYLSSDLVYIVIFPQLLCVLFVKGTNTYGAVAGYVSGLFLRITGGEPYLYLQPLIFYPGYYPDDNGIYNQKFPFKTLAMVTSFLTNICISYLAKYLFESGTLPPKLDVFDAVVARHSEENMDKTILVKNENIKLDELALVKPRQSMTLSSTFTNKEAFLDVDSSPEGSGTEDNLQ

[4] = inhibitors of PGC1a acetylation in cells, dose response, cell-based, cherry-picked samples (AID 720514); format: functional;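 also: potency may reflect raised or lowered acetylation signal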
[5] = NIH:OVCAR-3 ovarian cancer cell cytotoxicity, dose response, PAX8 inhibitor project, plate reader, dry powder samples (AID 743044); format: functional, cell-based
Paired box protein Pax-8 = Paired box protein Pax-8 (Homo sapiens, UniProt Q06710); assay: inhibitors of PAX8-driven TPO luciferase reporter, dose response, RMG-I cells, cherry-pick (AID 687027); format: functional, cell-based;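 also: luciferase reporter driven by Pax8 target thyroperoxidase promoter measured by SteadyGlo luminescence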
[6] = P. falciparum Dd2 growth inhibitors, dose response, SYBR Green, cherry-picked samples (AID 1159567); format: functional, cell-based
[7] = IGROV1 ovarian cancer cell cytotoxicity, dose response, PAX8 inhibitor project, plate reader, dry powder samples (AID 743043); format: functional, cell-based; conditions: IGROV-1
[8] = HepG2 cell cytotoxicity, dose response, cytotoxicity control, cherry-picked samples (AID 1159577); format: functional, cell-based
[9] = Counterscreen for […] of the human trace amine associated receptor 1 (TAAR1): Fluorescence-based cell-based high throughput dose response assay to identify nonselective Ga16 agonists.; format: functional
[10] = molecular target: T3, Trace amine-associated receptor 1 (Homo sapiens, UniProt Q96RJ0); assay: Counterscreen for antagonists of the human trace amine associated receptor 1 (hTAAR1): Fluorescence-based cell-based high throughput dose response assay to identify TAAR1 Agonists.; format: functional
T3 sequence (Q96RJ0 whole entry): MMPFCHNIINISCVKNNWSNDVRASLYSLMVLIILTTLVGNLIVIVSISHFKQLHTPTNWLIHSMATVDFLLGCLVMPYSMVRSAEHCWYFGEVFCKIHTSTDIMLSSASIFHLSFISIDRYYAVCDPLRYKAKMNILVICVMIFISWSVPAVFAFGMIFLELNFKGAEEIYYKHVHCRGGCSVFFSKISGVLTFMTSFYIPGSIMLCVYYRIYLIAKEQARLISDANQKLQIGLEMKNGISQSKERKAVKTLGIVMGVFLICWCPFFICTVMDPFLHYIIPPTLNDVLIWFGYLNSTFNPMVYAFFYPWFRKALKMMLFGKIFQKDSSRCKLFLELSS

[11] = Counterscreen for antagonists of the human trace amine associated receptor 1 (hTAAR1): Fluorescence-based cell-based high throughput dose response assay to identify nonselective Ga16 antagonists.; format: functional
[12] = molecular target: T3, Trace amine-associated receptor 1; assay: Fluorescence-based cell-based high throughput dose response assay to identify antagonists of the human trace amine associated receptor 1 (TAAR1).; format: functional
[13] = T. cruzi growth inhibition in host cells, dose response, cell-based, plate reader, dry powder, set 2 (AID 652275); format: functional
[14] = molecular target: Matrix metalloproteinase-14 (Homo sapiens, UniProt P50281); assay: Dose Response confirmation of uHTS hits for a small molecule inhibitors of MT1-MMP activation in a fluorescence assay set 1.; format: functional

Sequence of Paired box protein Pax-8 (Q06710 whole entry): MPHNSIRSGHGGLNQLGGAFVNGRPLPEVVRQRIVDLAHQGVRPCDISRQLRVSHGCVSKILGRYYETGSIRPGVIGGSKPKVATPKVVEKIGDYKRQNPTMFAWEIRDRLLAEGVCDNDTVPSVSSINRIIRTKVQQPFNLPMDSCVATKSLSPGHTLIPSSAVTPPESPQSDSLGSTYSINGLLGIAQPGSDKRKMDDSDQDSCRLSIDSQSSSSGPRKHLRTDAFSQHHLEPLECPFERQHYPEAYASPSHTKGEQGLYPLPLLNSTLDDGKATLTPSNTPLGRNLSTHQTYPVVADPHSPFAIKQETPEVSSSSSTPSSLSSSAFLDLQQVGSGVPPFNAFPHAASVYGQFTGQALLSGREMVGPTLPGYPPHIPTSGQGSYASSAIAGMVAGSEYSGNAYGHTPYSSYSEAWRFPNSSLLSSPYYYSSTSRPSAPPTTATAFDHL

For Nc1nc(S)c2[nH]c(S)nc2n1, the IC50 [1] was 112 µM (active) and the CC50 [2] was 100 µM (active).

With COC(=O)C1=C(C)N(Cc2ccc(F)cc2)C(=S)NC1c1ccc(F)cc1 (configuration not stated) the AC50 (HeLa) was > 52 µM (inactive) and the AC50 (Cryptococcus neoformans) was 56.1 µM (active).

In the case of COc1ccc(C(=O)NCc2nc(C)cs2)cc1OC1CCN(C(C)C)CC1, the IC50 [3] is reported as 77.3 µM (inactive).

In the case of O=C(Nc1ccc(C(F)(F)F)cc1)N1C[C@@H]2N[C@H](C1)[C@@H]2c1ccc(/C=C/c2ccccc2)cc1, the AC50 [4] is reported as 1.57 µM (active), the AC50 [5] is reported as 36.8 µM (active) and the AC50 (Paired box protein Pax-8) is reported as 21.7 µM (active). For the same compound, the AC50 [6] was 2.93 µM (active), the AC50 [7] was 50.8 µM (active) and the AC50 [8] was 2.56 µM (active).

With CN1CCN(c2ncnc3c2c(-c2ccccc2)cn3-c2ccc(F)cc2)CC1 the EC50 [9] was > 29.9 µM (inactive), the EC50 [10] was 10 µM (inactive) and the IC50 [11] was > 29.9 µM (inactive). The IC50 [12] was 3.17 µM (active).

In the case of CN(C)CC#Cc1cccc(-c2nc(C(=O)NCc3ccc4c(c3)OCO4)cc3c2[C@H](CCO)N([S+]([O-])C(C)(C)C)C3)c1 (some centres not stated), the AC50 [13] is reported as 1.38 µM (active).

In the case of Cc1cccc[n+]1CC(=O)/C=C1\N(C)c2ccccc2C1(C)C, the IC50 [14] is reported as 24.1 µM (inactive).
